Assay results from paper PMC9399069, “Imaging PARP with [^18F]rucaparib in pancreatic cancer models” (European Journal of Nuclear Medicine and Molecular Imaging, 2022).

What was measured:
[1] = tested on: AsPC1 cells; experiment: In vitro uptake and binding selectivity of [18F]rucaparib in AsPC1 cells; assay type: cell-based, human; settings: unlabelled inhibitor 100 μM for 45 min before [18F]rucaparib (100 nM), further 45 min
Procedure: (§1) AsPC1 (1 × 10^5 cells/well) and PSN1 cells (7.5 × 10^4 cells/well) were seeded separately in 24-well plates (in 300 μL growth medium) and allowed to adhere for at least 20 h. […] To assess [^18F]rucaparib-binding selectivity, unlabelled PARP inhibitors, IMPDH2 or ALDH2 inhibitor, were added (100 μM, in 270 μL growth medium) for 45 min at 37 °C before addition of [^18F]rucaparib (156 kBq, 6.8 GBq/μmol; [^TotalF]rucaparib final concentration: 100 nM), and the cells were incubated at 37 °C for a further 45 min. Cell culture medium was removed, and cells were washed with PBS. Cells were lysed using RIPA buffer for 15 min at room temperature, and the amount of ^18F in the cell lysates was measured using an automated gamma counter (PerkinElmer), normalising for the number of cells.
(§2) Cells were lysed and the amount of ^18F in the cell lysates was measured as above.

[2] = tested on: PSN1 cells; experiment: In vitro uptake and binding selectivity of [18F]rucaparib in PSN1 cells; assay type: cell-based, human; settings: PSN1 cells, unlabelled inhibitor 100 μM for 45 min before [18F]rucaparib (100 nM), further 45 min
Procedure: as §1, §2

## COc1c(C)c2c(c(O)c1C/C=C(\C)CCC(=O)OCCN1CCOCC1)C(=O)OC2 [mycophenolate mofetil, reference compound]
[1]
  Blocking of [18F]rucaparib uptake: significantly reduce
[2]
  Blocking of [18F]rucaparib uptake: significantly reduce

## O=c1c(-c2ccc(O)cc2)coc2cc(O[C@@H]3O[C@H](CO)[C@@H](O)[C@H](O)[C@H]3O)ccc12 [daidzin, reference compound]
[1]
  Blocking of [18F]rucaparib uptake: significantly reduce
[2]
  Blocking of [18F]rucaparib uptake: significantly reduce
